{
  "source": "patent US6806359B1",
  "about": "“Hormone receptor compositions and methods” (The Salk Institute for Biological Studies, priority 1986, dated 2004)",
  "molecular_target": "T1, GR (Homo sapiens, UniProt P04150)",
  "T1 sequence (P04150 1-777)": "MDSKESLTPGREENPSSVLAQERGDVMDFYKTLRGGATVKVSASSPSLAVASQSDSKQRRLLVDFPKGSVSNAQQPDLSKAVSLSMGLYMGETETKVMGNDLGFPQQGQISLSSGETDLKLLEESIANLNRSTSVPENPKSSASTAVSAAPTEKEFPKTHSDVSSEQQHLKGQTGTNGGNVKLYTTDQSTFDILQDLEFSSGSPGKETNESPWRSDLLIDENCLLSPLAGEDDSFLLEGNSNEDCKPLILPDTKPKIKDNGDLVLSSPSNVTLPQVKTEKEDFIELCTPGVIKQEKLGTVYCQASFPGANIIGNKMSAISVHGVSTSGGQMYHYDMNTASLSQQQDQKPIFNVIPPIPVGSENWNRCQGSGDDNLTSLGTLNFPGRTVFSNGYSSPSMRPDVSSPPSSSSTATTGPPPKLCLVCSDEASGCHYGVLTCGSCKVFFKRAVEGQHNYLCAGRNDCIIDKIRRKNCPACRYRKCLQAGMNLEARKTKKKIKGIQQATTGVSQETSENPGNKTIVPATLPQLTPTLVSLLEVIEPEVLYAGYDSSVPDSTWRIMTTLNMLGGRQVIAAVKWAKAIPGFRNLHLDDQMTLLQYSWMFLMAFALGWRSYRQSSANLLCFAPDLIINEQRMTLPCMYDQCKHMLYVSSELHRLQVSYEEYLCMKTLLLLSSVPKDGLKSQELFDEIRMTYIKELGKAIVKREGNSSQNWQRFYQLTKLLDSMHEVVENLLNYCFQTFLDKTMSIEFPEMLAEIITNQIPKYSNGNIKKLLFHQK",
  "assay": "hGR functional assay: CAT activity in CV-1 cells cotransfected with pRShGR alpha (or mutant) and pMTVCAT",
  "format": "cell-based",
  "design": "The expression vector linking the RSV LTR to full length hGR cDNA (pRShGR alpha) was designed to obtain high levels of expression; expressed in transfected cells; host or cells: CV-1 monkey kidney cells, cotransfected with pMTVCAT",
  "settings": "100 nM steroid, cotransfected CV-1 cells",
  "from_the_text": "The assay system and strategy used to study the expression of functional hGR from the cloned cDNA (See Experimental Section I) is shown in FIG. 11. In these experiments, a glucocorticoid-responsive promoter/enhancer element linked to a reporter gene was introduced into a receptor-negative cell. […] For our assay, we chose to use the MTV LTR fused to the sequence coding for chloramphenicol acetyltransferase (CAT) (EC2.3.1.28). […] Cotransfection of pMTVCAT (or pGMCAT) with a receptor expression plasmid provides functional receptors that allow induction of CAT activity upon treatment of the transfected cells with glucocorticoid hormone. In addition, biochemical studies such as steroid binding activity and Western blot analysis of the expressed receptors can be performed simultaneously.\nThe cells are then cultured in the presence or absence of hormone. CV-1 cells were used to monitor induction of CAT activity, and COS cells were used to measure steroid-binding capacity and the expression of hGR protein.\nCAT assays were performed as indicated in Experimental Procedures (See Section II. F.). C, chloramphenicol; AC, 3-acetylchloramphenicol.\nThe levels of CAT activity were plotted as percentages of the maximal response observe in a particular experiment.\nEach plasmid preparation used for transfection was purified using two consecutive CsCl-EtBr equilibrium gradients. […]",
  "data": [
    {"smiles": "C[C@]12CC[C@@H]3c4ccc(O)cc4CC[C@H]3[C@@H]1CC[C@@H]2O", "note": "[oestradiol]", "values": [
      {"measurement": "induction of CAT activity by steroid", "value": "failed to induce CAT activity"}
    ]}
  ]
}
